Measured values reported in patent US20200254241A1, “ELECTRICAL METHOD OF DELIVERING HYALURONIC ACID THROUGH THE SKIN” (priority 2017, published 2020).

Experiments:
[1] = In vitro skin deposition of FL-HA (120 kDa) in Franz diffusion cells, fluorimetry; assay type: in vitro ADME, porcine
From the text: The effect of electroporation parameters on skin integrity and transport of hyaluronic acid (at 1% by weight in water) 120 kDa (HA) labeled with fluorescein into the permeabilzed skin was investigated in vitro using electroporation vs. its passive diffusion.
ii) porating mode (100-250 V, shorter pulse lengths and low number of pulses). Franz-diffusion cells were used to evaluate the in vitro delivery.
Porcine ear skin was used for the in vitro studies. It is accepted as a good model for the human skin barrier. Hairs were excised from the skin surface using clippers. The skin was “sliced” so as to obtain samples with an average thickness of 1.5 mm for all samples. Skin was frozen (−20° C.) or stored at 4° C. until use.
The FL-HA was quantified using by fluorimetry. The measurements were performed using a microplate reader. The excitation and emission wavelengths were 494 and 514 nm. The gain was adjusted to 80 in order to obtain better sensitivity of the samples. All samples were put in polystyrene 96-well plates and protected from the light until analysis. Furthermore, a calibration curve was included in every plate.
The aim of the experiments was to quantify penetration of FL-HA (120 kDa) into intact, electroporated porcine ear skin with and without iontophoresis) as a function of duration using the optimal treatment conditions identified in the previous part of the study. Electroporation treatment was performed either as (i) pre-treatment, where electroporation was performed before formulation application, or as (ii) co-treatment, where the elcetroporation treatment was performed simultaneou.sly in the presence of the formulation. All conditions were tested for 10 and 20 min.
3. Condition 9 (Voltage 250 V, Pulse length 15 ms, Pulse interval 50 ms and 9 Pulses), pre-treatment with electroporation
4. Condition 9 (Voltage 250 V, Pulse length 15 ms, Pulse interval 50 ms and 9 Pulses), simultaneous treatment with electroporation and formulation
7. Control: Application of an aqueous solution of FL-HA (120 kDa) formula on (1% w/w) to “untreated” skin. […]

[2] = Skin images (confocal microscopy) for skin damage after the electrical treatment; parameters: species or system porcine; conditions: for skin damage in skin images: electroporation condition 9 plus iontophoresis
Protocol: The combination of such parameters with iontophoresis at 0.2 mA/cm^2 for 20 min has also been corroborated (x 12 vs. passive diffusion).
9. Take photos to make a visual record of skin condition.
The skin images obtained provide more information about the possible skin damage produced by the electroporation treatment.

Question: With hyaluronic acid [HA 120 kDa] as the substance, how does the “skin deposition, electroporation plus iontophoresis (CT+I) compared with electroporation alone (CT)” value ([1]; condition 9, iontophoresis 0.2 mA/cm^2 for 20 min, p<0.05, ANOVA, Student Newman Keuls test) read?
Answer: statistically superior

Question: What about the “skin deposition, electroporation plus iontophoresis (CT+I) compared with electroporation alone (CT)” value ([1]; condition 9, iontophoresis 0.2 mA/cm^2 up to 10 min) of the same substance?
Answer: not increasing the deposition

Question: And the “increase in skin deposition vs. passive diffusion” value ([1]; electroporation combined with iontophoresis at 0.2 mA/cm^2 for 20 min)?
Answer: 12 x

Question: And the “visual damage to the membrane (skin)” value ([2]; electroporation alone, 250 V, pulse length 15 ms, pulse interval 50 ms, <10 pulses)?
Answer: no visual damage

Question: What about the “skin damage in skin images” value [2] of the same substance?
Answer: lack of significant damage to the skin

Question: And the “skin damage in skin images” value ([2]; listed as 120 kDa FL-HA formulation)?
Answer: no damage was observed
